# Measured values taken from patent EP4768018A1, “TOPICAL GEL FOR JAK INHIBITOR AND USE THEREOF” (Prime Gene Therapeutics Co., Ltd., priority 2023, dated 2025).
# Columns and labels:
# [1] = Storage stability of Crystal Form III (NMR); assay type: physicochemical
# Experimental: Add 15 mg of 2-{3-[3-amino-4-(7H-pyrrolo[2,3-d]pyrimidin-4-yl)-1H-pyrazol-1-yl]-1-(isopropylsulfonyl)azetidin-3-yl}acetonitrile to 3 mL of dioxane, heat to 40°C to dissolve and obtain a clear solution, filter, and allow the solution to crystallize by evaporation at 40°C to obtain Crystal Form III.
# [2] = Long-term (24 months) stability study of crystal forms; assay type: physicochemical; conditions: for stability study result in words: 24 months
# Experimental: In accordance with the stability study guidelines issued by the China's National Medical Products Administration (NMPA), stability studies were conducted on Crystal Forms I, IIa, and IIb. Samples were packaged in pharmaceutical low-density polyethylene bags, and long-term stability (24 months) was evaluated.
# [3] = Crystal form conversion (room temperature; in the gel formulation, XRPD); assay type: physicochemical; conditions: for crystal form of the active pharmaceutical ingredient in the final gel formulation: after 3 days, XRPD, FIG. 5 to FIG. 6
# Experimental: Crystal Form IIa converts to Crystal Form IIb within 1 hour at room temperature (58.6% RH). During the preparation of topical gel formulation, Crystal Form I and Crystal Form IIb were respectively used as active pharmaceutical ingredients.
# [4] = Solubility of crystal forms in 20% propylene glycol at 32°C; assay type: physicochemical
# Experimental: (§1) Solubility Study of Various Crystal Forms
# Solubility in 20% Propylene Glycol at 32°C (µg/mL)
# [5] = Solubility of crystal forms at different pH (37°C, 24 h); assay type: physicochemical
# Experimental: as §1
# Solubility Measurement Results (37°C, 24 h)
# [6] = Transdermal test of crystal forms as topical gel in rats (permeation, drug content in skin by LC/MS/MS); assay type: in vivo, rat; conditions: topical gel according to the compositions of Example 1; FIG. 10A and FIG. 10B; Crystal Form I versus Crystal Form IIb
# Experimental: Crystal Forms I and IIb were prepared into topical gel formulations according to the compositions of Example 1, and transdermal tests were immediately conducted to determine their respective transdermal rates.
# Blood samples were collected at 0.25, 0.5, 1, 2, 4, 6, 8, and 24 hours after topical administration. Using a small animal anesthesia machine, 0.3 mL of whole blood was collected from the retro-orbital venous plexus under isoflurane anesthesia and placed in heparin anticoagulant tubes. Samples were centrifuged at 4°C, 4000 rpm for 5 minutes, plasma was transferred to centrifuge tubes, and stored at -80°C until analysis. Samples in plasma were extracted using protein precipitation, and the extract was analyzed by LC/MS/MS. After the test, the drug on skin was washed off, and the rat skin at administration site was excised, homogenized, and analyzed by LC/MS/MS for drug content in the skin. Table 4 Drug Concentration in Skin 24 h After Topical Administration
smiles,measurement,setting,value
"CC(C)S(=O)(=O)N1CC(CC#N)(n2cc(-c3ncnc4[nH]ccc34)c(N)n2)C1 [Crystal Form III, 2-{3-[3-amino-4-(7H-pyrrolo[2,3-d]pyrimidin-4-yl)-1H-pyrazol-1-yl]-1-(isopropylsulfonyl)azetidin-3-yl}acetonitrile Crystal Form III]",impurity formation,"[1]; after storage, NMR",approximately 10%
same,stability,[1]; in words,poor stability
"CC(C)S(=O)(=O)N1CC(CC#N)(n2cc(-c3ncnc4[nH]ccc34)c(N)n2)C1 [Crystal Form IIa, 2-{3-[3-amino-4-(7H-pyrrolo[2,3-d]pyrimidin-4-yl)-1H-pyrazol-1-yl]-1-(isopropylsulfonyl)azetidin-3-yl}acetonitrile Crystal Form IIa]",Appearance,[2]; 0 month,Off-white powder
same,Content,[2]; 0 month,99.8%
same,Crystal Form,[2]; 0 month,IIa
same,Loss on Drying,[2]; 0 month,0.06%
same,Related Substances Max Unknown Single Impurity,[2]; 0 month,0.06%
same,Related Substances Total Impurity,[2]; 0 month,0.28%
same,Appearance,[2]; 3 month,Off-white powder
same,Crystal Form,[2]; 3 month,IIb
same,Loss on Drying,[2]; 3 month,0.18%
same,Related Substances Max Unknown Single Impurity,[2]; 3 month,0.08%
same,Related Substances Total Impurity,[2]; 3 month,0.28%
same,Content,"[2]; 3 month, 131040 min",97.6%
same,Appearance,[2]; 6 month,Off-white powder
same,Crystal Form,[2]; 6 month,IIb
same,Loss on Drying,[2]; 6 month,0.19%
same,Related Substances Max Unknown Single Impurity,[2]; 6 month,0.11%
same,Related Substances Total Impurity,[2]; 6 month,0.27%
same,Content,"[2]; 6 month, 263520 min",97.8%
same,Appearance,[2]; 9 month,Off-white powder
same,Crystal Form,[2]; 9 month,IIb
same,Loss on Drying,[2]; 9 month,0.24%
same,Related Substances Max Unknown Single Impurity,[2]; 9 month,0.06%
same,Related Substances Total Impurity,[2]; 9 month,0.24%
same,Content,"[2]; 9 month, 394560 min",97.9%
same,Appearance,[2]; 12 month,Off-white powder
same,Crystal Form,[2]; 12 month,IIb
same,Loss on Drying,[2]; 12 month,0.20%
same,Related Substances Max Unknown Single Impurity,[2]; 12 month,0.09%
same,Related Substances Total Impurity,[2]; 12 month,0.22%
same,Content,"[2]; 12 month, 525600 min",97.8%
same,Appearance,[2]; 18 month,Off-white powder
same,Crystal Form,[2]; 18 month,IIb
same,Loss on Drying,[2]; 18 month,0.16%
same,Related Substances Max Unknown Single Impurity,[2]; 18 month,0.07%
same,Related Substances Total Impurity,[2]; 18 month,0.26%
same,Content,"[2]; 18 month, 789120 min",98.0%
same,Appearance,[2]; 24 month,Off-white powder
same,Crystal Form,[2]; 24 month,IIb
same,Loss on Drying,[2]; 24 month,0.25%
same,Related Substances Max Unknown Single Impurity,[2]; 24 month,0.08%
same,Related Substances Total Impurity,[2]; 24 month,0.29%
same,Content,"[2]; 24 month, 1.0512e+06 min",97.8%
same,stability study result in words,[2],gradually absorbs moisture during storage and converts to Crystal Form IIb
same,time of conversion to Crystal Form IIb,[3]; room temperature (58.6% RH),≤ 1 h
"CC(C)S(=O)(=O)N1CC(CC#N)(n2cc(-c3ncnc4[nH]ccc34)c(N)n2)C1 [Crystal Form IIb, 2-{3-[3-amino-4-(7H-pyrrolo[2,3-d]pyrimidin-4-yl)-1H-pyrazol-1-yl]-1-(isopropylsulfonyl)azetidin-3-yl}acetonitrile Crystal Form IIb]",Solubility in 20% Propylene Glycol at 32°C,[4]; 10 min,6.1 µg/mL
same,Solubility in 20% Propylene Glycol at 32°C,[4]; 30 min,9.5 µg/mL
same,Solubility in 20% Propylene Glycol at 32°C,"[4]; 1 h, 60 min",10.8 µg/mL
same,Solubility in 20% Propylene Glycol at 32°C,"[4]; 2 h, 120 min",11.2 µg/mL
same,Solubility in 20% Propylene Glycol at 32°C,"[4]; 18 h, 1080 min",13.3 µg/mL
same,Solubility Conc.,"[5]; pH 1.0, 1440 min",149.9 µg/mL
same,Solubility Conc.,"[5]; pH 2.0, 1440 min",17.4 µg/mL
same,Solubility Conc.,"[5]; pH 3.8, 1440 min",0.9 µg/mL
same,Solubility Conc.,"[5]; pH 4.5, 1440 min",0.7 µg/mL
same,Solubility Conc.,"[5]; pH 5.5, 1440 min",0.5 µg/mL
same,Solubility Conc.,"[5]; pH 6.8, 1440 min",0.6 µg/mL
same,Solubility Conc.,"[5]; pH 7.0, 1440 min",0.8 µg/mL
same,Solubility Conc.,"[5]; pH 8.0, 1440 min",0.7 µg/mL
same,Appearance,[2]; 0 month,Off-white powder
same,Content,[2]; 0 month,99.7%
same,Crystal Form,[2]; 0 month,IIb
same,Loss on Drying,[2]; 0 month,0.36%
same,Related Substances Max Unknown Single Impurity,[2]; 0 month,0.07%
same,Related Substances Total Impurity,[2]; 0 month,0.38%
same,Appearance,[2]; 3 month,Off-white powder
same,Crystal Form,[2]; 3 month,IIb
same,Loss on Drying,[2]; 3 month,0.36%
same,Related Substances Max Unknown Single Impurity,[2]; 3 month,0.08%
same,Related Substances Total Impurity,[2]; 3 month,0.38%
same,Content,"[2]; 3 month, 131040 min",99.7%
same,Appearance,[2]; 6 month,Off-white powder
same,Crystal Form,[2]; 6 month,IIb
same,Loss on Drying,[2]; 6 month,0.39%
same,Related Substances Max Unknown Single Impurity,[2]; 6 month,0.08%
same,Related Substances Total Impurity,[2]; 6 month,0.37%
same,Content,"[2]; 6 month, 263520 min",99.6%
same,Appearance,[2]; 9 month,Off-white powder
same,Crystal Form,[2]; 9 month,IIb
same,Loss on Drying,[2]; 9 month,0.34%
same,Related Substances Max Unknown Single Impurity,[2]; 9 month,0.08%
same,Related Substances Total Impurity,[2]; 9 month,0.38%
same,Content,"[2]; 9 month, 394560 min",99.5%
same,Appearance,[2]; 12 month,Off-white powder
same,Crystal Form,[2]; 12 month,IIb
same,Loss on Drying,[2]; 12 month,0.30%
same,Related Substances Max Unknown Single Impurity,[2]; 12 month,0.07%
same,Related Substances Total Impurity,[2]; 12 month,0.37%
same,Content,"[2]; 12 month, 525600 min",99.6%
same,Appearance,[2]; 18 month,Off-white powder
same,Crystal Form,[2]; 18 month,IIb
same,Loss on Drying,[2]; 18 month,0.31%
same,Related Substances Max Unknown Single Impurity,[2]; 18 month,0.07%
same,Related Substances Total Impurity,[2]; 18 month,0.39%
same,Content,"[2]; 18 month, 789120 min",99.6%
same,Appearance,[2]; 24 month,Off-white powder
same,Crystal Form,[2]; 24 month,IIb
same,Loss on Drying,[2]; 24 month,0.32%
same,Related Substances Max Unknown Single Impurity,[2]; 24 month,0.08%
same,Related Substances Total Impurity,[2]; 24 month,0.39%
same,Content,"[2]; 24 month, 1.0512e+06 min",99.7%
same,stability study result in words,[2],good chemical stability
same,crystal form of the active pharmaceutical ingredient in the final gel formulation,[3],exclusively in form IIb
"CC(C)S(=O)(=O)N1CC(CC#N)(n2cc(-c3ncnc4[nH]ccc34)c(N)n2)C1 [Crystal Form I, 2-{3-[3-amino-4-(7H-pyrrolo[2,3-d]pyrimidin-4-yl)-1H-pyrazol-1-yl]-1-(isopropylsulfonyl)azetidin-3-yl}acetonitrile Crystal Form I]",Solubility in 20% Propylene Glycol at 32°C,[4]; 10 min,12.7 µg/mL
same,Solubility in 20% Propylene Glycol at 32°C,[4]; 30 min,26.9 µg/mL
same,Solubility in 20% Propylene Glycol at 32°C,"[4]; 1 h, 60 min",35.8 µg/mL
same,Solubility in 20% Propylene Glycol at 32°C,"[4]; 2 h, 120 min",42.1 µg/mL
same,Solubility Conc.,"[5]; pH 1.0, 1440 min",464.2 µg/mL
same,Solubility Conc.,"[5]; pH 2.0, 1440 min",37.8 µg/mL
same,Solubility Conc.,"[5]; pH 3.8, 1440 min",2.3 µg/mL
same,Solubility Conc.,"[5]; pH 4.5, 1440 min",1.8 µg/mL
same,Solubility Conc.,"[5]; pH 5.5, 1440 min",1.6 µg/mL
same,Appearance,[2]; 0 month,Off-white powder
same,Content,[2]; 0 month,99.9%
same,Loss on Drying,[2]; 0 month,0.08%
same,Related Substances Max Unknown Single Impurity,[2]; 0 month,0.17%
same,Related Substances Total Impurity,[2]; 0 month,0.58%
same,Appearance,[2]; 3 month,Off-white powder
same,Loss on Drying,[2]; 3 month,0.06%
same,Related Substances Max Unknown Single Impurity,[2]; 3 month,0.16%
same,Related Substances Total Impurity,[2]; 3 month,0.57%
same,Content,"[2]; 3 month, 131040 min",100.1%
same,Appearance,[2]; 6 month,Off-white powder
same,Loss on Drying,[2]; 6 month,0.08%
same,Related Substances Max Unknown Single Impurity,[2]; 6 month,0.17%
same,Related Substances Total Impurity,[2]; 6 month,0.57%
same,Content,"[2]; 6 month, 263520 min",100.0%
same,Appearance,[2]; 9 month,Off-white powder
same,Loss on Drying,[2]; 9 month,0.11%
same,Related Substances Max Unknown Single Impurity,[2]; 9 month,0.17%
same,Related Substances Total Impurity,[2]; 9 month,0.57%
same,Content,"[2]; 9 month, 394560 min",99.8%
same,Appearance,[2]; 12 month,Off-white powder
same,Loss on Drying,[2]; 12 month,0.09%
same,Related Substances Max Unknown Single Impurity,[2]; 12 month,0.17%
same,Related Substances Total Impurity,[2]; 12 month,0.55%
same,Content,"[2]; 12 month, 525600 min",99.9%
same,Appearance,[2]; 18 month,Off-white powder
same,Loss on Drying,[2]; 18 month,0.12%
same,Related Substances Max Unknown Single Impurity,[2]; 18 month,0.18%
same,Related Substances Total Impurity,[2]; 18 month,0.62%
same,Content,"[2]; 18 month, 789120 min",99.7%
same,Appearance,[2]; 24 month,Off-white powder
same,Loss on Drying,[2]; 24 month,0.10%
same,Related Substances Max Unknown Single Impurity,[2]; 24 month,0.16%
same,Related Substances Total Impurity,[2]; 24 month,0.59%
same,Content,"[2]; 24 month, 1.0512e+06 min",99.8%
same,stability study result in words,[2],good chemical stability
same,crystal form of the active pharmaceutical ingredient in the final gel formulation,[3],exclusively in form IIb
same,transdermal performance,[6],better transdermal performance
